Assay results taken from patent publication US11747325B2, “Bleomycin for mimicking the effect of ionizing radiations on T cells” (Novagray, priority 2018, dated 2023).

Key:
T lymphocytes [1] = experiment: Bleomycin-induced CD8 T-lymphocyte apoptosis, treatment from the start of blood cell culture (at least 50 hours contact), flow cytometry; assay type: cell-based, human; details: for T lymphocytes apoptosis rate, from the start of cell culture: same blood sample, 8 Gy irradiation control 28.2%
Procedure: (§1) Blood samples were purchased from Etablissement Français du Sang (EFS) with the convention number 21PLER2016-0100 AV01. Blood samples were collected from healthy donors in 5 mL heparinized tubes without separation gel.
(§2) Blood cells were grown in RPMI-1640 with glutamax (Fisher scientific, France) supplemented with 20% fetal calf serum (FCS) (EuroBio, France). Cells were maintained at 37° C. with 5% CO2 during the experiments.
(§3) Bleomycin (EuroMedex) was solubilized in sterile MilliQ water at 50 mg/mL according to manufacturer instructions and stored at −80° C.
(§4) Samples were then centrifuged for 5 min at 300 g. The pellets were resuspended in phosphate-buffered saline (PBS) containing 10 μl of anti-human CD8-FITC antibody (Becton Dickinson, USA) and incubated for 20 minutes at room temperature. Then, red blood cells were lysed by addition of 4 ml of lysis buffer diluted 1:10 in water (Becton Dickinson, USA). After another 20 minutes incubation time at room temperature, samples were centrifuged for 5 min at 300 g and the pellets were washed with 3 ml of PBS. Pellets were suspended in 200 μl of PBS containing 25 μg/ml of propidium iodide (Sigma, France) and 5 μl of RNAse A at 10 mg/ml (Qiagen, France). The samples were analyzed by flow cytometry within the next hours, using the CytoFlex (Beckman Coulter, USA). […]
Two hundred microliters of blood were aliquoted into a 6-well plate containing 2 mL of RPMI-20% FCS-bleomycin, about 24 hours after blood collection. The cell culture media containing the different concentrations of bleomycin were made fresh just before starting the cell culture. After bleomycin incubation with blood cells for at least 50 hours (generally more than about 60 hours, in particular between 65 and 75 hours), samples were stained for flow cytometry analysis as described above.
(§5) Two treatment conditions were tested on the same blood sample: blood cells were treated by several bleomycin concentrations 24 hours after cell culture or from the start of cell culture. A control experiment was performed by irradiating blood samples at 8 Gy.

T lymphocytes [2] = experiment: Bleomycin-induced CD8 T-lymphocyte apoptosis, treatment 24 hours after blood cell culture (less than 50 hours contact), flow cytometry; assay type: cell-based, human; details: for T lymphocytes apoptosis rate, 24 hours after cell culture: staining 48 hours after treatment, same blood sample, 8 Gy control 28.2%
Procedure: as §1, §2, §3, §4
Two hundred microliters of blood were aliquoted into a 6-well plate containing 2 mL of RPMI-20% FCS, about 24 hours after blood collection. Bleomycin treatment, at the different concentrations, was performed 24 hours after blood cell culture by adding the Bleomycin directly into the wells. The staining for detecting apoptosis was performed as described above and 48 hours after the bleomycin treatment (thus, after less than 50 hours of contact of bleomycin with the cells). • Treatment during blood cell culture:
as §5

With Bleomycin the “T lymphocytes apoptosis rate, from the start of cell culture” value (T lymphocytes [1]; bleomycin 50 μg/mL) was 12.47%, the “T lymphocytes apoptosis rate, from the start of cell culture” value (T lymphocytes [1]; bleomycin 100 μg/ml) was 19.14% and the “T lymphocytes apoptosis rate, from the start of cell culture” value (T lymphocytes [1]; bleomycin 200 μg/ml) was 23.44%. The “T lymphocytes apoptosis rate, from the start of cell culture” value (T lymphocytes [1]; bleomycin 300 μg/ml) was 26.32%, the “T lymphocytes apoptosis rate, from the start of cell culture” value (T lymphocytes [1]; bleomycin 400 μg/ml) was 30.68% and the “Bleomycin concentration achieving the apoptosis rate obtained after 8 Gy irradiation” value (T lymphocytes [1]; treatment applied at the start of blood cell culture) was “lower than 300 μg/ml”. For the same substance, the “T lymphocytes apoptosis rate, 24 hours after cell culture” value (from here on “T lymphocytes apoptosis rate, 24 hours”) (T lymphocytes [2]; bleomycin 50 μg/mL) was 3.98%, the “T lymphocytes apoptosis rate, 24 hours” value (T lymphocytes [2]; bleomycin 100 μg/ml) was 2.72% and the “T lymphocytes apoptosis rate, 24 hours” value (T lymphocytes [2]; bleomycin 200 μg/ml) was 10.13%. For the same substance, the “T lymphocytes apoptosis rate, 24 hours” value (T lymphocytes [2]; bleomycin 300 μg/ml) was 11.9%, the “T lymphocytes apoptosis rate, 24 hours” value (T lymphocytes [2]; bleomycin 400 μg/ml) was 16.78% and the “Whether the apoptosis rate observed after 8 Gy irradiation is induced” value (T lymphocytes [2]; treatment 24 hours after blood cell culture, applied for less than 50 hours, 50 to 500 μg/mL) was “no bleomycin concentration, applied for less than 50 hours, induces the apoptosis rate observed after 8 Gy irradiation”.
